Test results: patent publication US20050256132A1, “Use of ER selective NF-kB inhibitors for the treatment of sepsis” (priority 2003, published 2005)
“And” between values parts separate entries of the source, which are not always exact repeats. Equal values may be shown once.

Assays:
[1] = tested on: Pseudomonas aeruginosa 12.4.4; experiment: Neutropenic rat model of Pseudomonas sepsis; type: in vivo, Sprague-Dawley rats
Method: The neutropenic rat model of pseudomonas sepsis has been previously described (Opal S M, et al., Shock 15(4):285-290, 2001). The experiments were conducted in specific pathogen-free female, Albino, Sprague-Dawley rats (Charles River Breeding Laboratories, Wilmington, Mass.) weighing 150-200 grams at the beginning of the experiments. Animals were treated with cefamandole (100 mg/kg intramuscularly daily) followed by oral colonization with Pseudomonas aeruginosa 12.4.4 (immunotype 6, A. McManus, San Antonio, Tex.) by orogastric feeding of 10^6 bacterial colony forming units at time 0, 48, and 96 hours.
Cyclophosphamide (Bristol-Myers, Evansville, Ind.) was given intraperitoneally at a dose of 150 mg/kg at time 0, and 50 mg/kg interperitoneally at 72 hours. Animals were followed daily with clinical examination of body temperature using a non-contact, digital, infrared thermometer (Horiba Instruments-Marksen Sciences, Phoenix, Ariz.) and body weight. Compound 67 (50 mg/kg) or corn oil control (n=12 in both groups) was administered orally by orogastric feeding beginning on day 4 after the first dose of cyclophosphamide and continuing for 8 days for the survival study. In an additional set of experiments, compound 1 (50 mg/kg) or control (n=8 in both groups) was administered every other day (day 4, 6, 8) and animals were sacrificed at day 8 for histopathologic studies. The distal 10 centimeters of ileum were resected and used for histopathological examination. The lumen was washed with phosphate buffered saline to remove residual particulate material prior to analysis and fixation. The mucosal surface epithelium was sampled for electromicroscopic studies and placed in gluteraldehyde fixative at the time of sacrifice. A 10 mm segment of ileal tissue was utilized for mucosal mass measurement.
Animals were assessed clinically and pathologically by daily body weight, body temperature, presence of bacteremia, circulating endotoxin levels, and pathologic evidence of damage to the gastrointestinal epithelium and liver by light microscopy and electron microscopy. The investigators performing the animal experiments were not blinded to the treatment assignment; however, an independent pathologist who was unaware of the treatment assignment for each animal performed the light microscopy and electron microscopy interpretation. A pathological injury scale of 0-4 was used to assess the degree of mucosal thinning, ulceration, and disruption.

CK = CK activity in lysate of ERα expressing HAECT-1 cells; type: cell-based, human
Method: (§1) (A) The effect of compound 67 on NF-κB mediated luciferase reporter activity in HAECT-1 cells expressing ERα. […] (C) The effect of compound 67 on the human IL-6 promoter luciferase reporter activity in HAECT-1 cells expressing either ERα (squares) or ERβ (diamonds). (D) The remaining lysate from (A) was used to determine CK activity.
(§2) HAECT-1 cells (Chadwick C C, et al., Proc Natl Acad Sciences, 2005, 102(7): 2543-2548) were cultured in EGM (GIBCO, Rockville, Md.) containing 10% FBS, 1% GlutaMAX and 0.1% Antimycotic-Antibiotic in Falcon T-175 culture flasks at 34° C. in 5% CO2 and infected for four hours with Ad5-wt-ER virus. After overnight recovery, the cells were infected for 2 hours with the Ad5-3x(NFκB).Luc or Ad5-IL6.Luc virus. Compound 67 and 2 ng/ml IL-1 were added to the cells for 15-20 h and the cell lysate was assayed for luciferase activity and evaluated for CK expression (Stanbio Laboratories, Texas). The values are reported as mean±SEM with n=4 from at least 3 independent experiments.

ERβ = experiment: Reporter activity in HAECT-1 cells expressing ERβ; type: cell-based, human; conditions: FIG. 1C
Method: as §1, §2

ER/NF-κB = ER/NF-κB luciferase reporter in Ad5-wt-ERα infected HAECT-1 cells (Table 1); type: cell-based, human; conditions: relative to the maximal inhibition observed with E2
Method: T-175 flasks of 100% confluent HAECT-1 cells (immortalized human aortic endothelial cells) were washed with 8 mL of HBSS (HEPES buffered saline solution) and infected for four hours with 6 mL of a 1:10 dilution of Ad5-wt-hERα virus (an adenovirus transfection vector that mediates CMV promoter driven expression of human ERα) in phenol red free Endothelial Cell Basal medium (Clonetics, San Diego Calif., Catalog # CC-3129) containing 0.25% bovine serum albumin (EBM-BSA). After four hours, cells were washed with EBM-BSA and incubated overnight in the same medium. Following overnight incubation, cells were washed with EBM-BSA and infected for 2 hours with 6 mL of a 1:10 dilution of Ad5-3x(NF-κB).Luc virus (Adenovirus luciferase expression vector driven by 3 repeats of the MHC NF-κb site 5′ to the thymidine kinase promoter) in EBM-BSA. […]
ERα infected HAECT-1 cells or control cells were thawed, diluted 42× in warm EBM-BSA, plated into 96-well plates at 0.1 mL/well and incubated for 4 hours at 34° C. […] Luciferase was determined on a Wallac Victor Luminometer (Gaithersburg, Md.) using 10 μL of lysate and mixing with 100 μL of Promega Luciferase Assay reagent. Creatine kinase was determined from the rate of increase in A340 following addition of 100 μL of CK assay reagent (Sigma, cat. No 47-10) to the remainder of the cell lysate. […]

IL-6 = IL-6 expression (ELISA) in Ad5-wt-ERα infected HAECT-1 cells (Table 1); type: cell-based, human

Q: COc1ccccc1[C@H](c1cccc2ccccc12)[C@@](C)(C#N)C(=O)N1CCC(c2cccc(C(F)(F)F)c2)CC1 [Example 67, (S,S)-3-(2-methoxyphenyl)-2-methyl-3-(1-naphthyl)-2-({4-[3-(trifluoromethyl)phenyl]piperidin-1-yl}carbonyl)propanenitrile] was tested. Which “electron microscopy of small intestinal enterocyte architecture, tight junctions, organelle structure” value ([1]; 50 mg/kg) did it give?
A: greater preservation

Q: What about the “prevention of lethality (Kaplan-Meier survival)” value ([1]; 50 mg/kg orally daily from day 4, FIG. 2) of the same molecule?
A: highly effective in the prevention of lethality

Q: And the “small bowel mucosal mass” value ([1]; 50 mg/kg, p<0.01 vs control, FIG. 4B)?
A: 76±21 mg/10 cm segment

Q: What about the “levels of bacteremia and endotoxemia” value ([1]; day 6 after first cyclophosphamide dose, FIG. 3) of the same molecule?
A: Reduced levels

Q: What about the “histopathologic injury score of gastrointestinal mucosa” value ([1]; scale 0-4, 50 mg/kg, day 8, p=0.02 vs control, FIG. 4A) of the same molecule?
A: 0.6±0.1

Q: What about the “elevation of CK activity” value (CK; at 1 μM) of the same molecule?
A: approximately 20%

Q: What about the “stimulation of CK expression” value (CK; compared with E2, FIG. 1D) of the same molecule?
A: did not stimulate CK expression comparable to E2

Q: What about the “inhibition of NF-κB transcriptional activity in the presence of ERβ” value (ERβ) of the same molecule?
A: little inhibition

Q: And the “ER/NFκB Efficacy” value (ER/NF-κB)?
A: 100% and 86% and 90% and 92%

Q: And the IC50 (IL-6; Homo sapiens, HAECT1, Ad5-wt-ERα infected HAECT-1 cells, IL-1 stimulated, read-out: Interleukin-6 IC50)?
A: 0.035 µM

Q: And the “Interleukin-6 Efficacy” value (IL-6; relative to the maximal inhibition observed with E2)?
A: 45%
